We go through 1 substance from patent US12534762B2, “Treating atopic dermatitis by targeting the WNT pathway” (Children's Medical Center Corporation, priority 2018, dated 2026).

The test system of this data set is Xenopus embryos. The experiment in a line: Dorso-animal morpholino injection, phenotype scored at stage 35. The format is in vivo, Xenopus laevis. As to conditions: FIG. 6 Panel D. Here is the method:
Xenopus embryo manipulations. Procedures for embryo manipulation, reverse transcription PCR and in situ hybridization were performed as previously described (Zhang et al., 2012, Cell, 149:1565-1577). The full length Xenopus laevis Tmem79 cDNA was used to make in situ sense and antisense probes.
mRNA and Morpholino injection. For animal cap assays, indicated mRNAs (Tmem79, 100 and 200 pg; Xwnt8, 10 pg; β-catenin 50 pg; Xnr1, 250 pg; BMP4, 100 pg) were injected into the animal pole at 4-cell stage, and animal caps were dissected at stage 9 (in the case of Xwnt8, Xnr1, BMP4) or at stage 8.5 and treated with recombinant proteins (bFGF, 100 ng/ml; hShh, 1.5 ng/mL) until stage 10 before RT-PCR. For Neural induction assay the MO (20 ng) for Tmem79, Usp8 or β-catenin was injected into the animal pole at 4-cell stage, and animal caps were dissected at stage 9 and treated with recombinant protein Noggin (500 ng/mL) until stage 18 before RT-PCR. To examine Tmem79 and Usp8 MOs specificity, […] of mRNA of Xenopus Tmem79, mouse Tmem79, Xenopus Usp8 or xmutUsp8 (Xenopus Usp8 mutated for mismatches with the MO) were injected with a control MO, Tmem79 MO or Usp8 MO (20 ng) into the animal pole at the 2-cell stage and cultured til stage 10 for Western blotting. To knockdown the endogenous xTmem79 or xUsp8, 20 ng of control MO, Tmem79 MO or Usp8 MO were injected into two dorso-animal blastomeres at the 8-cell stage and the phenotype was scored at stage 35. To rescue the Tmem79 MO phenotype, […] of mTmem 79, 20 ng of Usp8 MO or 10 ng of β-catenin MO was injected together with Tmem79 MO (20 ng). RT-PCR primers and Morpholinos. RT-PCT primer for Xenopus laevis Tmem 79: Forward, 5′-[…]-3′ (SEQ ID NO: 22); Reverse, 5′-[…]-3′ (SEQ ID NO: 23). The MO sequences: Tmem79.S MO, 5′-[…]-3′ (SEQ ID NO: 24); Tmem79.L MO, 5′-[…]-3′ (SEQ ID NO: 25); Usp8 MO, 5′-[…]-3′ ((SEQ ID NO: 26; Gene Tools, LLC). Phylogeny analysis and protein sequences. TMEM79 protein sequences were derived from full-length NCBI accessions and genomic sequences. Human (Homo sapiens): NP_115699.1 (SEQ ID NO: 27), Chimpanzee (Pan troglodytes): XP_001165258.1 (SEQ ID NO: 28), Rat (Rattus norvegicus): NP_001029068.1 (SEQ ID NO: 29), Mouse (Mus musculus): NP_077208.1 (SEQ ID NO: 30), Chicken (Gallus gallus): XP_024999333.1 (SEQ ID NO: 31), Frog (Xenopus laevis): XP_018089022.1 (SEQ ID NO: 32), Zebra fish (Danio rerio): XP_009290676.1 (SEQ ID NO: 33) and Coelacanth (Latimeria chalumnae): XP_014351966.1 (SEQ ID NO: 34). The Protein sequences encoded by mouse MAPEG family (Membrane-Associated Proteins in Eicosanoid and Glutathione metabolism, pfam01124) members protein sequences were derived from full-length NCBI accessions and genomic sequences. […]

“Usp8 MO: morpholino against Xenopus Usp8, SEQ ID NO: 26 (antisense GCTGCAAATTCTCCTCTCTTATCAA; all phosphorodiamidate morpholino (PMO); listed as Xenopus laevis)”: the “Enlarged Head” value is on record as 93.2 % of embryos. Moreover, under “anterior deficiency”, the “Moderate Deficiency” value is 0.0 % of embryos and the “Severe Deficiency” value is listed as 0.0 % of embryos. Further, the Normal (dorso-animal injection) is 6.8 % of embryos.
